This note sets out measurements from patent publication US20240246954A1, “COMPOSITIONS AND METHODS FOR INHIBITING KRAS” (TheRas, Inc., priority 2021, published 2024).

The target of assay [1] is T1, Avi-KRAS G12D (1-169) GppNHp/RAF1 RBD-3×FLAG (52-151) (Homo sapiens, UniProt P01116, G12D).
T1 construct: Avi-KRAS G12D (1-169) GppNHp
Description: HTRF Raf1-KRAS G12D-GppNHp disruption assay. To be noted: 1 h incubation. In kind it is biochemical. In short, it runs like this: (§1)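 Compounds titrated from 100 μM in a 10-point series, incubated with protein mix 1 h at room temperature, then HTRF reagents a further 1 h. Time-resolved fluorescence read (excitation 320 nm, emission 615 nm); activity expressed as percentage of DMSO control.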
A general note: Time-resolved FRET reads energy transfer from a long-lived donor to a nearby acceptor.

For assay [2], the system named is pERK in GP2d cells (KRAS G12D). The assay can be described thus: Cell-based pERK HTRF assay. The following applies: GP2d, 1 h, 60 min incubation. In short, it runs like this:
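GP2d cells (DMEM, 10% FBS) treated 60 min with compounds in a 9-point half-log series from 1 μM top concentration, 0.25% DMSO. Lysates read for pERK by HTRF (d2/Eu cryptate antibodies) after 4–24 h at room temperature; emission at 615 nm.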

In assay [3] the target is T2, Avi-KRAS G12D/Q25A (1-169) GppNHp/3×FLAG-PI3KCA (157-299) (Homo sapiens, UniProt P01116, G12D/Q25A).
T2 construct: Avi-KRAS G12D/Q25A (1-169) GppNHp
Description: HTRF PI3KCA-KRAS G12D/Q25A-GppNHp disruption assay. The class given is biochemical. The following applies: 1 h incubation. In short, it runs like this:
as §1

T1 sequence (P01116 1-169 isoform P01116-2 G12D limits assumed): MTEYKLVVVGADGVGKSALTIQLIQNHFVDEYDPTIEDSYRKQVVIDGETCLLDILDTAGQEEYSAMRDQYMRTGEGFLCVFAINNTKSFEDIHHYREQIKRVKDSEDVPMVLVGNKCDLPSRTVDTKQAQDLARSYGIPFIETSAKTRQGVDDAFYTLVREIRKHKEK
T2 sequence (P01116 1-169 isoform P01116-2 G12D/Q25A limits assumed): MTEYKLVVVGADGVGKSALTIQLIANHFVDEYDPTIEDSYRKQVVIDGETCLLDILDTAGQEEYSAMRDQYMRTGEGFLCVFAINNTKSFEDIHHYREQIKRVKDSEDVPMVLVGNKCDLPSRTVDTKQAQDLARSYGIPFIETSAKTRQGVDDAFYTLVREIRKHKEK

In the case of `NC(=O)N1CC(Nc2nc(OCC34CCCN3CCC4)nc3c(F)c(-c4ccc(F)c5sc(N)nc45)c(C(F)(F)F)cc23)C1` [Compound 188], the IC50 in assay [1] was 0.1 to 1 µM; in assay [2], above 1 µM; in assay [3] it was 1 to 10 µM.

Take `Nc1nc2c(-c3c(C(F)(F)F)cc4c(N5CC[C@@H]6CNC[C@@H]65)nc(OC[C@@]56CCCN5C[C@H](F)C6)nc4c3F)ccc(F)c2s1` [Compound 351]: the IC50 in assay [1], in assay [2] and in assay [3] was 0.1 to 1 µM in each case.

On to `C[C@@H]1C[C@@H](N(C)c2nc(OC[C@@]34CCCN3C[C@H](F)C4)nc3c(F)c(-c4ccc(F)c5sc(N)c(C#N)c45)ccc23)CN1` [Compound 357], for which the IC50 was 1 to 10 µM in assay [1], 0.1 to 1 µM in assay [2] and 1 to 10 µM in assay [3].

With `CN(c1nc(OC[C@@]23CCCN2C[C@H](F)C3)nc2c(F)c(-c3ccc(F)c4sc(N)c(C#N)c34)c(C(F)(F)F)cc12)[C@H]1CNC[C@H]1F` [Compound 353], the concentration for half-maximal inhibition (IC50) in assay [1] was 0.1 to 1 µM; in assay [2] it was at most 0.1 µM; in assay [3], 0.1 to 1 µM.

In the case of `Nc1nc2c(-c3c(C(F)(F)F)cc4c(N5C[C@H]6CC[C@@H](C5)N6)nc(OC[C@@]56CCCN5C[C@H](F)C6)nc4c3O)ccc(F)c2s1` [Compound 343, 7-(2-amino-7-fluorobenzo[d]thiazol-4-yl)-4-((1R,5S)-3,8-diazabicyclo[3.2.1]octan-3-yl)-2-(((2R,7aS)-2-fluorotetrahydro-1H-pyrrolizin-7a(5H)-yl)methoxy)-6-(trifluoromethyl)quinazolin-8-ol], the 50% inhibitory concentration (IC50) is 10 to 30 µM in assay [1], above 1 µM in assay [2] and 10 to 30 µM in assay [3].

Regarding `Nc1nc2c(-c3c(C(F)(F)F)cc4c(N5CC6CCC(C5)N6)nc(OC[C@@]56CCCN5C[C@H](F)C6)nc4c3F)ccc(F)c2o1` [Compound 220, 4-(4-(3,8-diazabicyclo[3.2.1]octan-3-yl)-8-fluoro-2-(((2R,7aS)-2-fluorotetrahydro-1H-pyrrolizin-7a(5H)-yl)methoxy)-6-(trifluoromethyl)quinazolin-7-yl)-7-fluorobenzo[d]oxazol-2-amine], the IC50 in assay [1] is 0.1 to 1 µM; in assay [2], at most 0.1 µM; in assay [3] it was 0.1 to 1 µM.

In the case of `N#Cc1c(N)sc2c(F)ccc(-c3c(C(F)(F)F)cc4c(N5CC6CCC(C5)N6)nc(OCC5(CN6CCOCC6)CC5)nc4c3F)c12` [Compound 337], the IC50 in assay [1] was at most 0.1 µM; in assay [2] it was at most 0.1 µM; in assay [3], 0.1 to 1 µM.

On to `CN1CCC[C@H]1COc1nc(NC2CNC2)c2cc(-c3ccoc3)c(-c3ccc(F)c4sc(N)nc34)c(F)c2n1` [Compound 133], for which the IC50 was 0.1 to 1 µM in assay [1], above 1 µM in assay [2] and 1 to 10 µM in assay [3].

For `CN(c1nc(OC[C@@]23CCCN2C[C@H](F)C3)nc2cc(-c3ccc(F)c4sc(N)c(C#N)c34)c(C(F)(F)F)cc12)[C@H]1CNC[C@H]1F` [Compound 347], the IC50 in assay [1] is 0.1 to 1 µM; in assay [2] it was at most 0.1 µM; in assay [3], 0.1 to 1 µM.

On to `N#Cc1cc2c(N3C[C@H]4CC[C@@H](C3)N4)nc(OC[C@@]34CCCN3C[C@H](F)C4)nc2c(F)c1-c1ccc(F)c2sc(N)c(C#N)c12` [Compound 359, 7-(2-amino-3-cyano-7-fluorobenzo[b]thiophen-4-yl)-4-((1R,5S)-3,8-diazabicyclo[3.2.1]octan-3-yl)-8-fluoro-2-(((2R,7aS)-2-fluorotetrahydro-1H-pyrrolizin-7a(5H)-yl)methoxy)quinazoline-6-carbonitrile], for which the IC50 in assay [1] is 0.1 to 1 µM; in assay [2] it was at most 0.1 µM; in assay [3] it was 0.1 to 1 µM.

`Nc1c(F)c(F)c(F)c(-c2c(C(F)(F)F)cc3c(N4CC5CCC(C4)N5)nc(OCC45CCCN4CCC5)nc3c2F)c1Cl` [Compound 346]: the figures for the IC50 in assay [1], in assay [2] and in assay [3] were 10 to 30 µM, above 1 µM and 10 to 30 µM, respectively.

In the case of `CN(c1nc(OC[C@@]23CCCN2C[C@H](F)C3)nc2cc(-c3ccc(F)c4sc(N)nc34)c(C(F)(F)F)cc12)[C@H]1CNC[C@H]1F` [Compound 354], the 50% inhibitory concentration (IC50) in assay [1], in assay [2] and in assay [3] was 0.1 to 1 µM each time.

For the molecule `Nc1nc2c(-c3c(C(F)(F)F)cc4c(N5CC[C@@H]6NCC[C@@H]65)nc(OCC56CCCN5CCC6)nc4c3F)ccc(F)c2s1` [Compound 333], the values for the half-maximal inhibitory concentration (IC50) in assay [1], in assay [2] and in assay [3] were 1 to 10 µM, above 1 µM and 1 to 10 µM, respectively.

`N#Cc1c(O)cccc1-c1c(C(F)(F)F)cc2c(N3CC4CCC(C3)N4)nc(OCC34CCCN3CCC4)nc2c1F` [Compound 341]: the IC50 in assay [1] was 10 to 30 µM; in assay [2], above 1 µM; in assay [3], 10 to 30 µM.

Turning to `CO[C@H]1CN2CCC[C@@]2(COc2nc(N3CC4CCC(C3)N4)c3cc(C(F)(F)F)c(-c4ccc(F)c5sc(N)nc45)c(F)c3n2)C1` [Compound 261], the IC50 in assay [1] was 0.1 to 1 µM; in assay [2], at most 0.1 µM; in assay [3], 0.1 to 1 µM.

Regarding `N#Cc1c(-c2ccc(F)c3sc(N)c(C#N)c23)c(Cl)cc2c(N3CC4CCC(C3)N4)nc(OC[C@@]34CCCN3C[C@H](F)C4)nc12` [Compound 371], the IC50 is 0.1 to 1 µM in assay [1], at most 0.1 µM in assay [2] and 0.1 to 1 µM in assay [3].

`Fc1c(-c2ccc(F)c3sc(C(F)F)nc23)c(C(F)(F)F)cc2c(N3CC4CCC(C3)N4)nc(OC[C@@]34CCCN3C[C@H](F)C4)nc12` [Compound 339]: the half-inhibitory concentration (IC50) in assay [1] was 10 to 30 µM; in assay [2], above 1 µM; in assay [3], 10 to 30 µM.

Turning to `CN(c1nc(OC[C@@]23CCCN2C[C@H](F)C3)nc2c(F)c(-c3ccc(F)c4sc(N)c(C#N)c34)c(F)cc12)[C@H]1CCNC1` [Compound 361, 2-amino-4-(6,8-difluoro-2-(((2R,7aS)-2-fluorotetrahydro-1H-pyrrolizin-7a(5H)-yl)methoxy)-4-(methyl((S)-pyrrolidin-3-yl)amino)quinazolin-7-yl)-7-fluorobenzo[b]thiophene-3-carbonitrile], the IC50 in assay [1], in assay [2] and in assay [3] was 0.1 to 1 µM throughout.

`Nc1nc2c(-c3cc4nc(OC[C@@]56CCCN5C[C@H](F)C6)nc(N5CC6CCC(C5)N6)c4cc3C(F)(F)F)c(F)cc(F)c2s1` [Compound 319]: the concentration for half-maximal inhibition (IC50) in assay [1] was 0.1 to 1 µM; in assay [2], at most 0.1 µM; in assay [3], 0.1 to 1 µM.

Take `Nc1nc2c(-c3c(C(F)(F)F)cc4c(N5C[C@H]6CC[C@@H](C5)N6)nc(OC[C@@]56CCCN5C[C@H](F)C6)nc4c3Cl)ccc(F)c2s1` [Compound 256, 4-(4-((1R,5S)-3,8-diazabicyclo[3.2.1]octan-3-yl)-8-chloro-2-(((2R,7aS)-2-fluorotetrahydro-1H-pyrrolizin-7a(5H)-yl)methoxy)-6-(trifluoromethyl)quinazolin-7-yl)-7-fluorobenzo[d]thiazol-2-amine]: the half-maximal inhibitory concentration (IC50) in assay [1] was 0.1 to 1 µM; in assay [2], at most 0.1 µM; in assay [3], 0.1 to 1 µM.

Take `CN(c1nc(OCC23CCCN2CCC3)nc2c(F)c(-c3ccc(F)c4sc(N)nc34)c(C(F)(F)F)cc12)[C@@H]1CCN(C(=O)CN)C1` (atropisomer, axis not shown) [Compound 276]: the 50% inhibitory concentration (IC50) in assay [1] was 0.1 to 1 µM; in assay [2], above 1 µM; in assay [3], 1 to 10 µM.

Take `N#Cc1csc2c(F)ccc(-c3cc4nc(OC[C@@]56CCCN5C[C@H](F)C6)nc(N5CC6CCC(C5)N6)c4cc3C(F)(F)F)c12` [Compound 318]: the IC50 fell in the range of 1 to 10 µM in assay [1], 0.1 to 1 µM in assay [2] and 10 to 30 µM in assay [3].

Broadly, the IC50 is the midpoint of a concentration-inhibition curve. A lower IC50 goes with greater potency.
